We go through 1 molecule from patent US20190100553A1, “DIRECT ACTIVITY ASSAYS AND COMPOSITIONS FOR NUCLEOTIDE POOL SANITIZING ENZYMES” (priority 2016, published 2019).

This test addresses T1, MTH1 (Homo sapiens, UniProt P36639).
T1 construct: Human MTH1 full length protein purchased from Abcam (Cambridge, USA); purchased Abcam
The experiment in a line: MTH1 inhibitor IC50 determination by two-tube OGAL probe assay. Format: biochemical. The conditions noted are these: 40 μM OGAL, read-out: apparent IC50.

Description: Inhibitory concentration (IC50) values were determined by the two-tube OGAL probe assay. The reaction buffer contained: 50 mM NaCl, 10 mM Tris-HCl (pH 7.9), 10 mM MgCl2, 1 mM DTT, 40 μM OGAL nucleotides, and varied concentrations of inhibitors. After 15 min incubation at 30° C., 5 μL of this reaction solution was added to 95 μL luciferase reaction solution in a 96 well plate to measure ATP signals. All the reactions were performed as three replicates. The IC50 was calculated using GraphPad Prism software.

For the molecule `Nc1ncnc2c1c(-c1cccc(OCc3ccccc3)c1)cn2C1CC(CN2CCC2)C1` (stereo not shown) [NVP-AEW541], the IC50 worked out at 1900 nM.

The IC50 is the concentration that inhibits the measured activity by half.
